Test results: the supplement of paper PMC11061612

Tests used:
[1] = system: KP-4 (Pancreatic Carcinoma); test: combination Emax (second highest fraction inhibited in the dose matrix, 72 h); higher = more inhibition; extreme values may be limits of the assay
Summary of the method: (§1)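 Cell lines in DMEM/F12 or RPMI with 10% FBS were plated in 1536-well plates, held 24 hours at 37°C, 5% CO2, then given two-drug dose matrices for 72 hours (DMSO typically 0.2%). Viability was read by CellTiter-Glo 2.0 luminescence and scaled as inhibition from 0 (vehicle wells) to 1 (blank wells). Combination Emax is the second-highest inhibition in the matrix; Bliss excess is observed combination effect minus expected EA + EB − EA·EB, EA and EB being single-agent effects.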

[2] = system: COR-L88 (Small Cell Lung Carcinoma); test: Bliss excess, mean over the matrix (fraction); higher = more synergy
Summary of the method: as §1

[3] = system: SK-CO-1 (Colorectal Carcinoma); test: as above
Summary of the method: as §1

[4] = system: HPAF-II (Pancreatic Carcinoma); test: as above
Summary of the method: as §1

SK-N-SH (Neuroblastoma) = test: as above
Summary of the method: as §1

[5] = system: KP-4 (Pancreatic Carcinoma); test: as above
Summary of the method: as §1

[6] = system: NAMALWA (Burkitt's Lymphoma); test: as above
Summary of the method: as §1

[7] = system: SCC-4 (Oral Cavity Carcinoma); test: as above
Summary of the method: as §1

[8] = system: ZR-75-30 (Breast Carcinoma); test: as above
Summary of the method: as §1

[9] = system: MDA-MB-415 (Breast Carcinoma); test: as above
Summary of the method: as §1

[10] = system: C-33-A (Cervical Carcinoma); test: as above
Summary of the method: as §1

[11] = system: MONO-MAC-6 (Acute Myeloid Leukemia); test: as above
Summary of the method: as §1

[12] = system: LCLC-103H (Non-Small Cell Lung Carcinoma); test: as above
Summary of the method: as §1

NCI-H226 (Mesothelioma) = test: as above
Summary of the method: as §1

[13] = system: OAW-28 (Ovarian Carcinoma); test: combination Emax (second highest fraction inhibited in the dose matrix, 72 h); higher = more inhibition; extreme values may be limits of the assay
Summary of the method: as §1

[14] = system: SNU-407 (Colorectal Carcinoma); test: as above
Summary of the method: as §1

[15] = system: NCI-H596 (Other Solid Carcinomas); test: as above
Summary of the method: as §1

[16] = system: NCI-H1876 (Small Cell Lung Carcinoma); test: as above
Summary of the method: as §1

[17] = system: OAW-28 (Ovarian Carcinoma); test: Bliss excess, mean over the matrix (fraction); higher = more synergy
Summary of the method: as §1

[18] = system: NCI-H596 (Other Solid Carcinomas); test: as above
Summary of the method: as §1
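Wherever Bliss excess, mean over the matrix is given: after 72 h of two-drug dosing.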

SMILES	combination Emax [1]	Bliss excess [2]	Bliss excess [3]	Bliss excess [4]	Bliss excess (SK-N-SH (Neuroblastoma))	Bliss excess [5]	Bliss excess [6]	Bliss excess [7]	Bliss excess [8]	Bliss excess [9]	Bliss excess [10]	Bliss excess [11]	Bliss excess [12]	Bliss excess (NCI-H226 (Mesothelioma))	combination Emax [13]	combination Emax [14]	combination Emax [15]	combination Emax [16]	Bliss excess [17]	Bliss excess [18]
C[C@@H](Nc1cc(F)cc(F)c1)c1cc(C(=O)N(C)C)cc2c(=O)cc(N3CCOCC3)oc12 [AZD8186] + CC(=O)c1c(C)c2cnc(Nc3ccc(N4CCNCC4)cn3)nc2n(C2CCCC2)c1=O [Palbociclib] (first compound max 10 µM, 7x7, partner max 10 µM)	0.601	0.0025	0.0163	0.0384	0.0108	0.0976	0.0544	0.0328	-0.0465	-0.0443	-0.0435	0.0726	-0.0038	-0.0662						
C[C@@H](Oc1cc(-c2cnn(C3CCNCC3)c2)cnc1N)c1c(Cl)ccc(F)c1Cl [Crizotinib] + CC1=C(C(=CC=C1)Cl)NC(=O)C2=CN=C(S2)NC3=CC(=NC(=N3)C)N4CCN(CC4)CCO [Dasatinib] (first compound max 10 µM, 7x7, partner max 2 µM)	0.848	-0.0039	0.0048	0.0578	0.0049	0.0493	0.0586	0.0487	-0.0431	-0.0332	-0.02	0.014	0.01	-0.0295						
C[C@@H](Oc1cc(-c2cnn(C3CCNCC3)c2)cnc1N)c1c(Cl)ccc(F)c1Cl [Crizotinib] + Cn1cnc2c(F)c(Nc3ccc(Br)cc3Cl)c(C(=O)NOCCO)cc21 [Selumetinib] (first compound max 10 µM, 7x7, partner max 10 µM)	0.838	-0.0464	-0.043	0.0008	-0.0546	0.0259	-0.0259	-0.0514	-0.0416	-0.0114	-0.0274	0.023	-0.0221	-0.0387						
CS(=O)(=O)CCNCc1ccc(-c2ccc3ncnc(Nc4ccc(OCc5cccc(F)c5)c(Cl)c4)c3c2)o1 [Lapatinib] + Cn1cnc2c(F)c(Nc3ccc(Br)cc3Cl)c(C(=O)NOCCO)cc21 [Selumetinib] (first compound max 10 µM, 7x7, partner max 10 µM)	0.382	-0.0301	0.0335	0.109	-0.0123	0.0641	-0.0003	0.0318	-0.0329	-0.0575	0.0282	0.0017	-0.0744	-0.0542						
CS(=O)(=O)CCNCc1ccc(-c2ccc3ncnc(Nc4ccc(OCc5cccc(F)c5)c(Cl)c4)c3c2)o1 [Lapatinib] + NC1(c2ccc(-c3nc4ccn5c(=O)[nH]nc5c4cc3-c3ccccc3)cc2)CCC1 [MK-2206] (first compound max 10 µM, 7x7, partner max 10 µM)	0.275	0.0151	0.0289	0.0089	-0.0194	-0.0389	0.0388	0.0365	-0.0604	0.0306	0.0295	0.0302	-0.0428	-0.0287	0.898	0.808	0.822	0.948	0.0285	-0.045
O=C(c1cc(Cc2n[nH]c(=O)c3ccccc23)ccc1F)N1CCN(C(=O)C2CC2)CC1 [Olaparib] + CC1(C)CCC(CN2CCN(c3ccc(C(=O)NS(=O)(=O)c4ccc(NCC5CCOCC5)c([N+](=O)[O-])c4)c(Oc4cnc5[nH]ccc5c4)c3)CC2)=C(c2ccc(Cl)cc2)C1 [Venetoclax] (first compound max 10 µM, 7x7, partner max 1 µM)	0.135	0.0604	-0.0405	-0.0183	0.0412	-0.0331	0.0044	-0.0455	-0.0247	-0.064	-0.0389	0.0368	-0.0212	-0.0428						
O=C(c1cc(Cc2n[nH]c(=O)c3ccccc23)ccc1F)N1CCN(C(=O)C2CC2)CC1 [Olaparib] + CN(CC[C@H](CSC1=CC=CC=C1)NC2=C(C=C(C=C2)S(=O)(=O)NC(=O)C3=CC=C(C=C3)N4CCC(CC4)[C@H](C5=CC=CC=C5C6=CC=C(C=C6)Cl)O)S(=O)(=O)C(F)(F)F)CCO [AZD4320] (first compound max 10 µM, 7x7, partner max 1 µM)	0.155	0.0077	0.0256	-0.0399	0.0025	-0.0113	-0.0236	-0.0161	-0.0327	-0.0718	0.0014	0.0291	-0.0339	-0.047						
O=C(c1cc(Cc2n[nH]c(=O)c3ccccc23)ccc1F)N1CCN(C(=O)C2CC2)CC1 [Olaparib] + COc1nnc2ccc(N3CCC(c4ccc(OCCN5CCN(C)C(=O)[C@H]5C)cc4)CC3)nn12 [AZD5153] (first compound max 10 µM, 7x7, partner max 1 µM)	0.532	-0.0582	-0.0441	0.0018	-0.0402	-0.0266	-0.0519	-0.0472	-0.0502	-0.0222	-0.0461	-0.0333	-0.0369	-0.0749						
O=C(c1cc(Cc2n[nH]c(=O)c3ccccc23)ccc1F)N1CCN(C(=O)C2CC2)CC1 [Olaparib] + Cc1c2c(nn1C)CSCc1cc(n(C)n1)CSc1cc(c3ccccc3c1)OCCCc1c(C(=O)O)n(C)c3c-2c(Cl)ccc13 [AZD5991] (first compound max 10 µM, 7x7, partner max 1 µM)	0.113	0.0223	-0.0091	-0.0366	-0.0445	-0.0386	-0.0026	-0.0491	-0.0227	-0.0838	-0.0224	0.0434	-0.0206	-0.0583						
N#Cc1cnc(Nc2cc(NC[C@H]3CNCCO3)c(C(F)(F)F)cn2)cn1 [SRA737] + C=CCn1c(=O)c2cnc(Nc3ccc(N4CCN(C)CC4)cc3)nc2n1-c1cccc(C(C)(C)O)n1 [AZD1775] (first compound max 10 µM, partner max 1 µM)	0.597	0.111	0.0306	0.0176	0.0281	0.0595	0.0724	0.0374	-0.0093	0.0133	0.0919	0.0824	0.0146	-0.0457						
N#Cc1cnc(Nc2cc(NC[C@H]3CNCCO3)c(C(F)(F)F)cn2)cn1 [SRA737] + O=c1[nH]cc(F)c(=O)[nH]1 [5-Fluorouracil] (first compound max 10 µM, 7x7, partner max 20 µM)	0.376	-0.0088	0.0188	0.036	-0.0499	0.0334	0.0157	0.0952	-0.0283	0.057	0.0006	0.0181	0.0215	-0.0281						
Cc1nc(-c2cn3c(n2)-c2ccc(-c4cnn(C(C)(C)C(N)=O)c4)cc2OCC3)n(C(C)C)n1 [Taselisib] + O=C(Nc1ccc2[nH]nc(-c3ccncc3)c2c1)[C@@H]1CCN(CC(=O)N2CCN(c3ccc(-c4ncccn4)cc3)CC2)C1 [SCH772984] (first compound max 10 µM, 7x7, partner max 5 µM)	0.776	0.004	0.0763	0.224	0.0498	0.215	0.0894	0.0899	0.0556	-0.0012	0.0551	0.0832	0.0056	0.0164						
CC1(C)CCC(CN2CCN(c3ccc(C(=O)NS(=O)(=O)c4ccc(NCC5CCOCC5)c([N+](=O)[O-])c4)c(Oc4cnc5[nH]ccc5c4)c3)CC2)=C(c2ccc(Cl)cc2)C1 [Venetoclax] + CS(=O)(=O)CCNCc1ccc(-c2ccc3ncnc(Nc4ccc(OCc5cccc(F)c5)c(Cl)c4)c3c2)o1 [Lapatinib] (first compound max 1 µM, 7x7, partner max 10 µM)	0.0862	-0.0146	0.0109	-0.0355	0.008	-0.0168	-0.0072	-0.0231	0.0215	-0.047	-0.0001	-0.0371	-0.0319	-0.0355						
